Measured values taken from patent US20230286973A1, “PROTEIN SECRETION INHIBITORS” (KEZAR LIFE SCIENCES, priority 2020, published 2023).
pEC50, pIC50: −log10 of the molar value.

Experiments:
[1] = system: IL-2-FL/Gaussia Luciferase; test: Dox Induced IL2-FL-Gluc Assay; assay type: cell-based; details: for pIC50: 24 hr Dox induction, 293FRT/TO cells, read-out: 24 hr Dox Inducible IL2FLGluc 293FRT/TO: Mean IC50; for 24 hr Dox Inducible IL2FLGluc 293FRT/TO: IL2/PD1: ratio of IL2FLGluc IC50 to PD1ssGluc IC50
In short: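 Stable Flp-In 293 T-REx line, Tet-regulated IL-2 (aa 1-153)–Gaussia luciferase fusion; hygromycin/blasticidin selected. Plated day -1; compound + doxycycline added next day; 37° C, 5% CO2.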

[2] = Liver Microsome Stability Assay (rat); details: rat liver microsomes, with NADPH, 1.0 uM compound
Protocol: (§1) Stability of a compound was assessed in the presence of liver microsomes from various sources—mouse, rat, monkey and human liver microsomes. 1.0 uM compound, 0.4% DMSO in 0.1 M Potassium Phosphate with 1.0 mg/mL liver microsomes, were incubated at 37° C. with or without 1 mM NADPH. The samples were quenched at 0, and 30 minutes.

[3] = system: PD1-ss+10aa/Gaussia Luciferase; test: Dox-Induced PD1-ss-Gluc Assay; assay type: cell-based; details: 24 hr Dox induction; 293FRT/TO cells; read-out: 24 hr Dox Inducible PD1ssGluc 293FRT/TO: Mean IC50
In short: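 Doxycycline-induced expression of a PD1-ss+10aa/Gaussia luciferase reporter is measured in stable Flp-In 293 T-REx cells. Compound dilutions containing doxycycline are added one day after plating and incubated at 37 °C, 5% CO2. Values for unassigned stereocentres refer to stereoisomer mixtures.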

[4] = system: multiple myeloma cell line NCI-H929; test: H929 Cell Viability Assay; assay type: cell-based, human; details: Homo sapiens, NCI-H929, 48 h, NCI-H929 cells, Celltiter-Glo
In short: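 Cells in RPMI 1640/10% FBS; compound dilutions in DMSO/media; 48 h, 37° C, 5% CO2; CellTiter-Glo luciferase readout for viability.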

[5] = system: multiple myeloma cell line U266B1; test: U266 Cell Viability Assay; assay type: cell-based, human; details: Homo sapiens, U-266, 48 h, U266B1 cells, Celltiter-Glo
In short: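 Luminescent ATP read-out (CellTiter-Glo) after 48 h compound exposure at 37° C., 5% CO2; cells maintained in RPMI 1640/10% FBS/2 mM glutamine/pen-strep, compounds diluted in DMSO/media.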

[6] = system: HER3-ss+4aa/Gaussia Luciferase; test: Dox-Induced Her3-ss-Gluc Assay; assay type: cell-based; details: 24 hr Dox induction; 293FRT/TO cells; read-out: 24 hr Dox Inducible Her3(ss + 4)Gluc 293FRT/TO: Mean IC50
In short: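 Flp-In 293 T-REx cells, stable HER3-ss+4aa/Gaussia luciferase insert, hygromycin/blasticidin selected; plated day before; compound in DMSO/media + doxycycline; 37° C., 5% CO2.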

[7] = Liver Microsome Stability Assay (mouse); details: mouse liver microsomes, with NADPH, 1.0 uM compound
Protocol: as §1

[8] = system: TNFα-FL/Gaussia Luciferase; test: Dox Induced TNFα-FL-Gluc Assay; assay type: cell-based; details: for pIC50: 24 hr Dox induction, 293FRT/TO cells, read-out: 24 hr Dox Inducible TNFaFLGluc 293FRT/TO: Mean IC50; for 24 hr Dox Inducible TNFaFLGluc 293FRT/TO: TNF/PD1: ratio of TNFaFLGluc IC50 to PD1ssGluc IC50
In short: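 Cell line: stable Flp-In 293 T-REx, TNFα-FL(1-233)-Gaussia luciferase fusion, T-REx-inducible. Plated day -1; compounds in DMSO/media + doxycycline, 37 °C, 5% CO2. Undefined stereocentres = mixture tested.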

[9] = Liver Microsome Stability Assay (monkey); details: monkey liver microsomes, with NADPH, 1.0 uM compound
Protocol: as §1

[10] = Liver Microsome Stability Assay (human); details: human liver microsomes, with NADPH, 1.0 uM compound
Protocol: as §1

Compound	pIC50 [1]	24 hr Dox Inducible IL2FLGluc 293FRT/TO: IL2/PD1 [1]	Liver Microsome Stability (Multiple Species): Rat - % Remaining after 30 min w/NADPH [2] [%]	pIC50 [3]	pEC50 [4]	pEC50 [5]	pIC50 [6]	Liver Microsome Stability (Multiple Species): Mouse - % Remaining after 30 min w/NADPH [7] [%]	pIC50 [8]	24 hr Dox Inducible TNFaFLGluc 293FRT/TO: TNF/PD1 [8]	Liver Microsome Stability (Multiple Species): Monkey - % Remaining after 30 min w/NADPH [9] [%]	Liver Microsome Stability (Multiple Species): Human - % Remaining after 30 min w/NADPH [10] [%]
CC(=O)N[C@H](C)c1ccc(N2CCC[C@@H]2c2csc(NC(=O)c3cccn3Cc3ccncc3)n2)cc1 [Compound A66, N-(4-((R)-1-(4-((R)-1-acetamidoethyl)phenyl)pyrrolidin-2-yl)thiazol-2-yl)-1-(pyridin-4-ylmethyl)-1H-pyrrole-2-carboxamide]	7.16	2.5	5.19	7.57	6.38	< 4.60	7.22	30	6.23	21.5	2.72	2.98
C[C@@H](N)c1ccc(N2CCC[C@@H]2c2csc(NC(=O)c3cccn3Cc3ccncc3)n2)cc1 [Compound A67, N-(4-((R)-1-(4-((R)-1-aminoethyl)phenyl)pyrrolidin-2-yl)thiazol-2-yl)-1-(pyridin-4-ylmethyl)-1H-pyrrole-2-carboxamide]	7.26	2.3	51.9	7.63	6.25	5.16	7.19	82.3	6.06	36.4	40.4	28.9
CC(=O)Nc1ccc(N2CCC[C@@H]2c2csc(NC(=O)c3cccn3Cc3ccnc(F)c3)n2)cc1 [Compound A68, (R)-N-(4-(1-(4-acetamidophenyl)pyrrolidin-2-yl)thiazol-2-yl)-1-((2-fluoropyridin-4-yl)methyl)-1H-pyrrole-2-carboxamide]	8.22	2.6	16.9	8.63	7.35	< 4.60	8.30	27.5	7.36	19	11.8	25.8
CC(=O)N[C@@H](C)c1ccc(N2CCC[C@@H]2c2csc(NC(=O)c3cccn3Cc3ccnc(F)c3)n2)cc1 [Compound A69, N-(4-((R)-1-(4-((S)-1-acetamidoethyl)phenyl)pyrrolidin-2-yl)thiazol-2-yl)-1-((2-fluoropyridin-4-yl)methyl)-1H-pyrrole-2-carboxamide]	6.94	2.2	35	7.28	5.50	< 4.60	7.22	12.1	6.48	6.35	0.47	1.43
CC(=O)N[C@H](C)c1ccc(N2CCC[C@@H]2c2csc(NC(=O)c3cccn3Cc3ccnc(F)c3)n2)cc1 [Compound A70, N-(4-((R)-1-(4-((R)-1-acetamidoethyl)phenyl)pyrrolidin-2-yl)thiazol-2-yl)-1-((2-fluoropyridin-4-yl)methyl)-1H-pyrrole-2-carboxamide]	7.52	2.3	7.79	7.88	6.41	< 4.60	7.74	23.7	6.63	18	0.83	2.86
C[C@H](N)c1ccc(N2CCC[C@@H]2c2csc(NC(=O)c3cccn3Cc3ccncc3)n2)cc1 [Compound A71, N-(4-((R)-1-(4-((S)-1-aminoethyl)phenyl)pyrrolidin-2-yl)thiazol-2-yl)-1-(pyridin-4-ylmethyl)-1H-pyrrole-2-carboxamide]	6.44	2.7	82.1	6.87	5.36	5.11	6.83	95.6	5.43	27.2	36.1	51.8
C[C@@H](N)c1ccc(N2CCC[C@@H]2c2csc(NC(=O)c3cccn3Cc3ccnc(F)c3)n2)cc1 [Compound A72, N-(4-((R)-1-(4-((R)-1-aminoethyl)phenyl)pyrrolidin-2-yl)thiazol-2-yl)-1-((2-fluoropyridin-4-yl)methyl)-1H-pyrrole-2-carboxamide]	6.50	2.2	94.1	6.85	5.42	5.18	6.71	72.3	5.58	18.8	37.8	23.9
CC(=O)N[C@@H](C)c1ccc(N2CCC[C@@H]2c2csc(NC(=O)c3cccn3Cc3ccncc3)n2)cc1 [Compound A73, N-(4-((R)-1-(4-((S)-1-acetamidoethyl)phenyl)pyrrolidin-2-yl)thiazol-2-yl)-1-(pyridin-4-ylmethyl)-1H-pyrrole-2-carboxamide]	7.05	3.3	15	7.58	5.43	< 4.60	7.63	0.14	6.46	13.2	0.08	0.1
C[C@H](N)c1ccc(N2CCC[C@@H]2c2csc(NC(=O)c3cccn3Cc3ccnc(F)c3)n2)cc1 [Compound A74, N-(4-((R)-1-(4-((S)-1-aminoethyl)phenyl)pyrrolidin-2-yl)thiazol-2-yl)-1-((2-fluoropyridin-4-yl)methyl)-1H-pyrrole-2-carboxamide]	6.44	3.1	98.3	6.93	5.41	5.21	6.63	94.3	5.55	23.7	38.5	38.6
